{"source": "ChEMBL document CHEMBL1132423", "about": "“Diethylcarbamoylating/nitroxylating agents as dual action inhibitors of aldehyde dehydrogenase: a disulfiram-cyanamide merger” (J Med Chem, 1999)", "target": "T1, Aldehyde dehydrogenase 1A1 (Rattus norvegicus) (UniProt P51647)", "T1 sequence (whole entry)": "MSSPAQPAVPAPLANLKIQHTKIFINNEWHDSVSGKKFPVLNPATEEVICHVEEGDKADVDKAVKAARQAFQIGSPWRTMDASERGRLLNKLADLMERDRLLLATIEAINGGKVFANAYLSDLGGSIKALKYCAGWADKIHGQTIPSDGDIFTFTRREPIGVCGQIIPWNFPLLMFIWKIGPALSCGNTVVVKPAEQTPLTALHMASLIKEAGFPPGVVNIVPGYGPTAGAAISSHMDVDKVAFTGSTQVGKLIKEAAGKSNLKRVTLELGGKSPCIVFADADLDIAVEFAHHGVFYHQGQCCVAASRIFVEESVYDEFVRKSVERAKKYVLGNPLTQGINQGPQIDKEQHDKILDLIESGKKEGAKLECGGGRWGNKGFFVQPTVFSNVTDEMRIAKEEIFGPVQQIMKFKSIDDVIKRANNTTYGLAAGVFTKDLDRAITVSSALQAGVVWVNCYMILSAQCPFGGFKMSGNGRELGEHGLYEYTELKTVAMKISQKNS", "experiment": "Percent inhibition of rat hepatic mitochondrial […] dehydrogenase", "settings": "concentration not given here"}
{"smiles": "CCOC(=O)N(OC(=O)N(CC)CC)S(=O)(=O)c1ccccc1", "values": [{"measurement": "inhibition", "result": "> 70", "unit": "%"}]}
